Data: PubChem BioAssay (NCI)
Where “and” joins values, the source holds several entries; their conditions need not be identical. Equal values may be shown once.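 Assay format: 96-well plates, 48-hour exposure. Here, GI50 denotes the concentration required for 50% inhibition of growth. TGI is the concentration that stops growth completely.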

Tests used:
Assay in all cases: NCI tumour cell line growth inhibition, 48 h
HCT-116 colon = test system: HCT-116 colon
RXF 393 renal = test system: RXF 393 renal
OVCAR-3 ovarian = test system: OVCAR-3 ovarian
UO-31 renal = test system: UO-31 renal
CCRF-CEM leukemia = test system: CCRF-CEM leukemia
SK-MEL-2 melanoma = test system: SK-MEL-2 melanoma
OVCAR-5 ovarian = test system: OVCAR-5 ovarian
SK-MEL-5 melanoma = test system: SK-MEL-5 melanoma
HOP-18 NSCLC = test system: HOP-18 NSCLC
P388/ADR leukemia = test system: P388/ADR leukemia
SNB-78 CNS = test system: SNB-78 CNS
SNB-19 CNS = test system: SNB-19 CNS
SF-268 CNS = test system: SF-268 CNS
EKVX NSCLC = test system: EKVX NSCLC
A498 renal = test system: A498 renal
HOP-62 NSCLC = test system: HOP-62 NSCLC
M14 melanoma = test system: M14 melanoma
HS 578T breast = test system: HS 578T breast

SMILES	TGI (HCT-116 colon) [µM]	TGI (RXF 393 renal) [µM]	TGI (OVCAR-3 ovarian) [µM]	TGI (UO-31 renal) [µM]	TGI (CCRF-CEM leukemia) [µM]	TGI (SK-MEL-2 melanoma)	TGI (OVCAR-5 ovarian) [µM]	TGI (SK-MEL-5 melanoma) [µM]	TGI (HOP-18 NSCLC) [µM]	TGI (P388/ADR leukemia) [µM]	TGI (SNB-78 CNS) [µM]	TGI (SNB-19 CNS) [µM]	TGI (SF-268 CNS) [µM]	TGI (EKVX NSCLC) [µM]	TGI (A498 renal) [µM]	TGI (HOP-62 NSCLC) [µM]	TGI (M14 melanoma) [µM]	TGI (HS 578T breast) [µM]	GI50 (SNB-19 CNS) [µM]	GI50 (M14 melanoma) [µM]
CC1=NN(C(=O)c2ccc(C)cc2)C(=O)C1N=Nc1ccccc1C(=O)O (centres undefined)	> 100	> 100	> 100	> 100	> 100	> 100 µM	> 100	> 100	> 100	> 100	> 100	> 100	> 100	> 100	> 100	> 100				
CC1CCN(c2cc(-c3cc4ccccc4o3)oc(=O)c2C#N)CC1	> 100	> 100		> 100	> 100	> 100 µM	> 100	> 100	> 100			> 100	> 100	> 100	> 100		> 100			
O=C(/C=C\c1ccc(/C=C/C(=O)Nc2cccc(C3=NCCCN3)c2)cc1)Nc1cccc(C2=NCCCN2)c1	> 100	> 100	> 100	> 100	> 100	> 100 µM	> 100	> 83.5	> 100	> 100	> 100	> 100			> 100	> 100				
CO/C(=N\N=C(/c1ccccc1)C(F)(F)F)c1ccncc1	> 100	> 100	> 100	> 100	77	> 100 µM	> 100	57				> 100			> 100	> 100	> 100	> 100		
c1csc(C(NC2=NCCO2)C2CC2)c1 (centres undefined)	> 100	> 100		> 100		> 100 µM	> 100	> 100				> 100		> 100	> 100	> 100		> 100		
Clc1ccc(-c2nnc(-c3nsc4ccccc34)o2)cc1	42.9	99.4	32	47.5		> 100 µM	> 100	> 100			> 100	> 100	66.6	> 100		33.6	> 100			
Clc1cccc(C2SCc3nc4ccccc4n32)c1 (centres undefined)		41.7	29.1		> 100		95.6		47.5		87.5		> 100	52.4		55.9	50.5			
Fc1ccc(C(OCCN2CC3CC2CN3)c2ccc(F)cc2)cc1 (centres undefined)		> 100	> 100		> 100	38.1 µM		30.9					> 100		> 100	> 100		> 100		
CC(=O)Nc1cc(/C=C\C(=O)N2CC(CCl)c3c2cc(N)c2ccccc32)n(C)n1 (centres undefined)		> 100	> 100	0.0214	0.012	0.0416 µM and 0.0479 µM							0.211		0.0211				0.0277	0.0138
N/C(=N\N=C/c1cc([N+](=O)[O-])cc([N+](=O)[O-])c1O)NO	> 100	> 100	> 100	> 100	> 100	> 100 µM	> 87.3	> 38.4	> 100	> 100	> 100	> 100	> 100	> 100	> 100	> 39.1				
